In patent US20240374738A1, “BIFUNCTIONAL COMPOUND CAPABLE OF DEGRADING RECEPTOR TYROSINE KINASE AND APPLICATION THEREOF” (TAIBIDI PHARMACEUTICAL TECHNOLOGY (SHIJIAZHUANG) CO., LTD., priority 2023, published 2024):
pIC50: −log10 of the molar value.

How the values were obtained:
Format in all cases: cell-based
SNU5 = test: Growth inhibition of gastric cancer cells SNU5 (CCK-8); details: Homo sapiens, SNU-5, half inhibitory concentration, 72 hours
Procedure: (§1) Inoculate gastric cancer cells (SNU5 or MKN45) into a 96 well plate at a concentration of […], with 100 μl added to each well. Incubate for 30 minutes. Observe the cell status under a microscope. Prepare compounds, weigh a certain amount of the series compounds or reference drug cabozantinib of this patent, first prepare a high concentration mother liquor with pure DMSO, and use gradient dilution method to prepare a concentration of 200 μM, 60 μM, 20 μM, 6 μM, 2 μM, 600 nM, 200 nM, 0 nM drug solution, shake to make it fully mixed. The control group was prepared with cabozantinib using the same solvent and method.
(§2) After preparation, add 1 μl of drug solution to each well of the 96 well plate, and then add 100 μl of culture medium. Repeat each dose three times. Gently shake to allow the cells and medication to come into full contact and incubate in the incubator for 72 hours. 72 hours later, remove and color with CCK-8 reagent kit. Add 20 μl of CCK-8 reagent to each well, gently shake well, and incubate in the incubator for 1 hour. After 1 hour, remove and measure the absorbance of each well using an enzyme-linked immunosorbent assay (ELISA) reader at a wavelength of 450 nm.
(§3) According to the formula: Cell growth inhibition rate=[1−(absorbance of experimental group absorbance of culture medium control group)/(absorbance of blank control group−absorbance of culture medium control group)]×100%. It can be concluded that the compound has the ability to inhibit the growth of gastric cancer cells at the current dose and time.
(§4) Draw a graph based on the gradient of concentration and use GraphPad Prism 9 software (GraphPad Software, La Jolla, CA) to calculate the maximum inhibitory concentration (IC50) at 50%.
(§5) Referring to steps 1 and 2 of this embodiment, the inhibitory effect of the compound of the present invention on the growth of cancer cells and the degradation effect of target proteins were measured, and the following results were obtained (see Table 2 below).
(§6) The growth inhibitory effects of the compound of the present invention on tumor cell lines MKN45 and SNU5 were measured. The activity is expressed as half inhibitory concentration (C50). The results are shown in Table 2 below; When the half inhibitory concentration is less than or equal to 100 nM, the compound activity is labeled as “++++”; When the half inhibitory concentration is greater than 100 nM and less than 500 nM, the compound activity is labeled as […] and less than 1000 nM, the compound activity is labeled as “++”; When the half inhibitory concentration is greater than 1000 nM and less than 3000 nM, the compound activity is marked as “+”; When the half inhibitory concentration is greater than 3000 nM, the compound activity is marked as […]

MKN45 = test: Growth inhibition of gastric cancer cells MKN45 (CCK-8); details: Homo sapiens, MKN-45, half inhibitory concentration, 72 hours
Procedure: as §1, §2, §3, §4, §5, §6

DDR1 = DDR1 (Homo sapiens, UniProt Q08345); test: Degradation of DDR1 in tumor cell MKN45 (Western blot); parameters: The degradation activity of the compounds against DDR1 in the MKN45 cell line; endogenous in cells; host or cells: MKN45; details: MKN-45, maximum degradation percentage, MKN45 cells, 24 hours
Chain of DDR1 (Q08345 19-913): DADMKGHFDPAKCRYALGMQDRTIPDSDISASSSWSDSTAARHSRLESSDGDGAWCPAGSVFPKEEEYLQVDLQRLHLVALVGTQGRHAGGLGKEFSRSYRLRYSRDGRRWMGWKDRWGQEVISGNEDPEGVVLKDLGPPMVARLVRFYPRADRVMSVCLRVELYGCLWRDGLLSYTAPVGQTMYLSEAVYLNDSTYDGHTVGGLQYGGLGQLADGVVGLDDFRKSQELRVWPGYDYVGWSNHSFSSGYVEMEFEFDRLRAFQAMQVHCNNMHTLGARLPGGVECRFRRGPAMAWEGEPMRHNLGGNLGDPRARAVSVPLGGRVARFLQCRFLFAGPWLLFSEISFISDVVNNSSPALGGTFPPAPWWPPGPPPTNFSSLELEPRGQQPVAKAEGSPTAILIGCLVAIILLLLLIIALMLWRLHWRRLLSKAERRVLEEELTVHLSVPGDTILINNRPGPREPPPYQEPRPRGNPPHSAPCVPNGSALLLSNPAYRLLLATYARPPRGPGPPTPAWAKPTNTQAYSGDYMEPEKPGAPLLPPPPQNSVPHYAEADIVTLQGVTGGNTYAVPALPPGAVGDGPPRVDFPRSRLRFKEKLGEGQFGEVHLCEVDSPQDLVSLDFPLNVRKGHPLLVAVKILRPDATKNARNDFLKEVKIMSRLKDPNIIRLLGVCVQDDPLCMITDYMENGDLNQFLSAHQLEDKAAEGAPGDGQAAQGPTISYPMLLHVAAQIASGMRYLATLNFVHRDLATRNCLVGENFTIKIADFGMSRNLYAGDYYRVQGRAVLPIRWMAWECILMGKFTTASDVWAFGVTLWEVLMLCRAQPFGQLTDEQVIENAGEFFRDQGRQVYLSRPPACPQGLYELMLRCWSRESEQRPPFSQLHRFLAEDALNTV
Procedure: Western blot experiment: Take gastric cancer cells (MKN45) and inoculate them into a 6-well plate at a concentration of […], adding 2 ml to each well and incubating for 24 hours.
The next day, observe the cells under a microscope to confirm their status. Prepare compounds, weigh a certain amount of the series compounds or reference drug cabozantinib from this patent, first prepare a high concentration mother liquor with pure DMSO, and use gradient dilution method to prepare compound concentrations of 2 mM, 200 μM, 100 μM, 20 μM, 2 μM, 200 nM, and 0 nM. The final concentration of DMSO is 0.5%. Shake to thoroughly mix. Add 10 μl of solution to each well. After incubation for 24 hours, remove the cells and use a pipette to aspirate the suspended cells into a 1.5 ml centrifuge tube. Centrifuge at 5000 rpm for 10 minutes to precipitate the cells. Carefully remove the cell precipitate from the culture medium, add 1 ml of PBS and shake slightly. After repeated cleaning for 3 times, dry the residue. Add 150 μl of RIPA lysate pre mixed with 1% PMSF, blow to allow the lysate to fully contact the cells, and incubate on ice for 10 minutes. Centrifuge at 12000 rpm for 10 minutes, extract the supernatant, use the BCA protein quantification kit to determine and homogenize the sample loading.
Mix BCA-A in a 50:1 ratio Prepare working solution with B solution, dilute the sample by 5 times, then pipette 20 μl onto a 96 well ELISA plate. Add 200 μl of pre mixed BCA working solution and incubate at 37° C. for 20 minutes. Measure the A562 nm absorbance value using an ELISA reader and substitute it into the protein standard curve formula to obtain the sample concentration. After calculating the required volume for loading […] of sample, divide the sample into 1.5 ml centrifuge tubes. Add 10 μl of sample buffer to each tube and mix well. Heat in a 95° C. metal bath for 5 minutes to denature the protein.
Take 4-20% gradient pre adhesive and fix it on the adhesive rack. Add electrophoresis solution to the slot and remove the comb, Marker and protein samples were loaded, and after 30 minutes of electrophoresis at 80V, the voltage was adjusted to 120V for electrophoresis, The marker band stops electrophoresis at the forefront of the gel. Take out the adhesive block and cut it to the appropriate size, The PVDF membrane was cut and activated in methanol, and after activation, the PVDF membrane was equilibrated in a membrane transfer equilibrium solution for 1 minute. Using sponge pads The sequence of PVDF film, adhesive, and sponge pad is placed in the splint and placed in the eBlot equipment for rapid wet rotation. Remove the membrane and seal it in 5% skim milk powder dissolved in 1×TBST for 1 hour. Cut the membrane according to the molecular weight of the target protein and internal reference protein, and place it in primary antibody diluted with 1×TBST. Shake overnight at 4° C.
The next day, transfer the band to 1×TBST for 3 washes, then add a specific dilution of the secondary antibody and shake it for 1.5 hours. Transfer the band again to 1×TBST for 3 washes, prepare ECL color solution, place the membrane in the imaging system, cover the surface with ECL color solution, and take photos of the membrane using the imaging system.
Using the SHST analysis system to analyze the results, measure the grayscale values of each band of the target protein and internal reference protein. Normalize the grayscale values of the target protein/corresponding lane GAPDH grayscale values, and perform quantitative analysis according to the protein amount=experimental group grayscale value/blank control group grayscale value.
The activity of the compound of the present invention in degrading DDR in tumor cell line MKN45 was measured. […]

| pIC50 (SNU5) | pIC50 (MKN45) | Dmax (DDR1) [%] | Structure (SMILES) |
| --- | --- | --- | --- |
| 6.30 to 7.00 | 6.00 to 6.30 | 75 to 85 | COc1cc2c(Oc3ccc(NC(=O)C4(C(=O)Nc5ccc(F)cc5)CC4)cc3)ccnc2cc1NC(=O)CN1CCC(CN2CCN(c3ccc4c(c3)C(=O)N(C3CCC(=O)NC3=O)C4=O)CC2)CC1 (stereo not drawn) [TPD5735] |
| 6.00 to 6.30 | 6.30 to 7.00 | 75 to 85 | COc1cc2c(Oc3ccc(NC(=O)C4(C(=O)Nc5ccc(F)cc5)CC4)cc3)ccnc2cc1N1CCC(CN2CCC(OCC(=O)N[C@H](C(=O)N3C[C@H](O)C[C@H]3C(=O)NCc3ccc(-c4scnc4C)cc3)C(C)(C)C)CC2)CC1 [TPD5407] |
| ≥ 7.00 | ≥ 7.00 | 75 to 85 | COc1cc2c(Oc3ccc(NC(=O)C4(C(=O)Nc5ccc(F)cc5)CC4)cc3)ccnc2cc1N1CCN(CCCC(=O)N[C@H](C(=O)N2C[C@H](O)C[C@H]2C(=O)NCc2ccc(-c3scnc3C)cc2)C(C)(C)C)CC1 [TPD5457] |
| ≥ 7.00 | ≥ 7.00 | 65 to 75 | COc1cc2c(Oc3ccc(NC(=O)C4(C(=O)Nc5ccc(F)cc5)CC4)cc3)ccnc2cc1N1CCC(CN2CCN(CCNc3cc4c(cn3)CN(C3CCC(=O)NC3=O)C4=O)CC2)CC1 (stereo not drawn) [TPD12009] |
| 5.52 to 6.00 | 6.00 to 6.30 | 65 to 75 | COc1cc2c(Oc3ccc(NC(=O)C4(C(=O)Nc5ccc(F)cc5)CC4)cc3)ccnc2cc1NCC(=O)N[C@H](C(=O)N1C[C@H](O)C[C@H]1C(=O)NCc1ccc(-c2scnc2C)cc1)C(C)(C)C [TPD5417] |
| ≥ 7.00 | ≥ 7.00 | > 85 | COc1cc2c(Oc3ccc(NC(=O)C4(C(=O)Nc5ccc(F)cc5)CC4)cc3)ccnc2cc1N1CCC(CN2C[C@H]3C[C@@H]2CN3CC(=O)Nc2cc3c(cn2)C(=O)N(C2CCC(=O)NC2=O)C3)CC1 (stereo partly drawn) [TPD12101] |
| ≥ 7.00 | ≥ 7.00 | 65 to 75 | COc1cc2c(Oc3ccc(NC(=O)C4(C(=O)Nc5ccc(F)cc5)CC4)cc3)ccnc2cc1N1CCC(CN2C[C@@H]3C[C@H]2CN3CC(=O)Nc2cc3c(cn2)C(=O)N(C2CCC(=O)NC2=O)C3)CC1 (stereo partly drawn) [TPD12100] |
| ≥ 7.00 | ≥ 7.00 | > 85 | COc1cc2c(Oc3ccc(NC(=O)C4(C(=O)Nc5ccc(F)cc5)CC4)cc3)ccnc2cc1N1CCC(CN2CCN(CC(=O)Nc3cccc4c3CN(C3CCC(=O)NC3=O)C4=O)CC2)CC1 (stereo not drawn) [TPD5901] |
| ≥ 7.00 | ≥ 7.00 | 65 to 75 | COc1cc2c(Oc3ccc(NC(=O)C4(C(=O)Nc5ccc(F)cc5)CC4)cc3)ccnc2cc1N1CCC(CN2CCN(CCCc3cccc4c3CN(C3CCC(=O)NC3=O)C4=O)CC2)CC1 (stereo not drawn) [TPD5937] |
| 5.52 to 6.00 | 5.52 to 6.00 | 65 to 75 | COc1cc2c(Oc3ccc(NC(=O)C4(C(=O)Nc5ccc(F)cc5)CC4)cc3)ccnc2cc1N1CCC(C(=O)NCC(=O)N[C@H](C(=O)N2C[C@H](O)C[C@H]2C(=O)NCc2ccc(-c3scnc3C)cc2)C(C)(C)C)CC1 [TPD5452] |
| ≥ 7.00 | ≥ 7.00 | < 50 | COc1cc2nccc(Oc3ccc(NC(=O)C4(C(=O)Nc5ccc(F)cc5)CC4)cc3)c2cc1OC [cabozantinib, reference compound] |
| ≥ 7.00 | 6.00 to 6.30 | > 85 | COc1cc2c(Oc3ccc(NC(=O)C4(C(=O)Nc5ccc(F)cc5)CC4)cc3)ccnc2cc1N1CCC(CN2C[C@@H]3C[C@H]2CN3CC(=O)Nc2ccc3c(c2)CN(C2CCC(=O)NC2=O)C3=O)CC1 (stereo partly drawn) [TPD12216] |
| 6.30 to 7.00 | 6.30 to 7.00 | > 85 | COc1cc2c(Oc3ccc(NC(=O)C4(C(=O)Nc5ccc(F)cc5)CC4)cc3)ccnc2cc1COCCN1CCC(OCCCNc2ccc3c(c2)C(=O)N(C2CCC(=O)NC2=O)C3=O)CC1 (stereo not drawn) [TPD5315] |

| Structure (SMILES) | pIC50 (SNU5) | pIC50 (MKN45) | Dmax (DDR1) [%] |
| --- | --- | --- | --- |
| COc1cc2c(Oc3ccc(NC(=O)C4(C(=O)Nc5ccc(F)cc5)CC4)cc3)ccnc2cc1N1CCC(CN2CCN(CCNc3nccc4c3CN(C3CCC(=O)NC3=O)C4=O)C(=O)C2)CC1 (stereo not drawn) [TPD12068] | ≥ 7.00 | ≥ 7.00 | 65 to 75 |
| COc1cc2c(Oc3ccc(NC(=O)C4(C(=O)Nc5ccc(F)cc5)CC4)cc3)ccnc2cc1N1CCC(CN2C3CC2CN(CCC=Cc2cc4c(cn2)C(=O)N(C2CCC(=O)NC2=O)C4)C3)CC1 (stereo not drawn) [TPD12238] | ≥ 7.00 | ≥ 7.00 | 65 to 75 |
| O=C1CCC(N2Cc3c(C#CCCN4CC5CC(C4)N5CC4CCN(c5cc6nccc(Oc7ccc(NC(=O)C8(C(=O)Nc9ccc(F)cc9)CC8)cc7)c6cc5F)CC4)cccc3C2=O)C(=O)N1 (stereo not drawn) [TPD12235] | ≥ 7.00 | ≥ 7.00 | 65 to 75 |
| O=C1CCC(N2Cc3cc(NC(=O)CCN4CC5CC(C4)N5CC4CCN(c5cc6nccc(Oc7ccc(NC(=O)C8(C(=O)Nc9ccc(F)cc9)CC8)cc7)c6cc5F)CC4)ncc3C2=O)C(=O)N1 (stereo not drawn) [TPD12162] | ≥ 7.00 | ≥ 7.00 | 65 to 75 |
| O=C1CCC(N2Cc3c(C#CCCN4CC5CC(C4)N5CC4CCN(c5cc6nccc(Oc7ccc(NC(=O)C8(C(=O)Nc9ccc(F)cc9)CC8)cc7)c6cc5OC(F)(F)F)CC4)cccc3C2=O)C(=O)N1 (stereo not drawn) [TPD12150] | 6.30 to 7.00 | ≥ 7.00 | 65 to 75 |
| COc1cc2c(Oc3ccc(NC(=O)C4(C(=O)Nc5ccc(F)cc5)CC4)cc3)ccnc2cc1N1CCC(CN2C[C@H]3C[C@@H]2CN3CCC(=O)Nc2cc3c(cn2)C(=O)N(C2CCC(=O)NC2=O)C3)CC1 (stereo partly drawn) [TPD12110] | ≥ 7.00 | ≥ 7.00 | 75 to 85 |
| COc1cc2c(Oc3ccc(NC(=O)C4(C(=O)Nc5ccc(F)cc5)CC4)cc3)ccnc2cc1N1CCC(CN2C[C@@H]3C[C@H]2CN3CCNc2cc3c(cn2)C(=O)N(C2CCC(=O)NC2=O)C3)CC1 (stereo partly drawn) [TPD12096] | ≥ 7.00 | ≥ 7.00 | 65 to 75 |
| COc1cc2c(Oc3ccc(NC(=O)C4(C(=O)Nc5ccc(F)cc5)CC4)cc3)ccnc2cc1N1CCC(CN2C3CC2CN(CC(=O)Nc2cc4c(cn2)C(=O)N(C2CCC(=O)NC2=O)C4)C3)CC1 (stereo not drawn) [TPD12083] | ≥ 7.00 | ≥ 7.00 | 65 to 75 |
